# Assay results as given in patent US12138312B2, “Cell-penetrating peptides for antisense delivery” (Sarepta Therapeutics, Inc., priority 2017, dated 2024).
# Like-named read-outs stand apart in the source and are kept apart here. No end group written: not given here.
# Test system: HeLa 654 cells
# Assay: eGFP exon-skipping reporter assay, flow cytometry analysis of GFP fluorescence
# Assay type: cell-based
# [1] = eGFP fluorescence of CPP-PMO IVS2-654 conjugate compared to unconjugated PMO, 5 μM, 22 hours, MEM with 10% FBS
# [2] = […], 5 μM, 22 hours, MEM with 10% FBS
substance,measurement,setting,value
Buforin 2,Activity Relative to PMO,[1],1.9
Melittin,Activity Relative to PMO,[2],4.5
Penetratin,Activity Relative to PMO,[1],4.2
"Pyrrhocoricin (VDKGSYLPRPTPPRPIYNRN; ends and bridges not checked; also: conjugated to PMO cargo; UniProt P37362 1-20, looked up)",Activity Relative to PMO,,1.4
SAP(E),Activity Relative to PMO,[1],0.8
Transportan 10,Activity Relative to PMO,[2],0.8
"λN(1-22): PMO IVS2-654 conjugated to CPP MDAQTRRRERRAEKQAQWKAAN (also: conjugated to PMO IVS2-654 cargo; UniProt P03045 1-22, looked up, fragment)",Activity Relative to PMO,[2],1.4
